Measurements reported in ChEMBL document CHEMBL3627674, “Discovery of wrightiadione as a novel template for the TrkA kinase inhibitors” (Bioorg Med Chem Lett, 2015).

Legend:
[1] = target: Platelet-derived growth factor receptor alpha (Homo sapiens) (UniProt P16234); assay: Inhibition of PDGFRA (unknown origin) assessed as remaining activity at 10 uM by high-throughput assay relative to control
[2] = target: Tyrosine-protein kinase BTK (Homo sapiens) (UniProt Q06187); assay: Inhibition of BTK (unknown origin) assessed as remaining activity at 10 uM by high-throughput assay relative to control
[3] = target: Ribosomal protein S6 kinase alpha-3 (Homo sapiens) (UniProt P51812); assay: Inhibition of RSK2 Kin.Dom1.1-N-terminal (unknown origin) assessed as remaining activity at 10 uM by high-throughput assay relative to control
[4] = target: MAP/microtubule affinity-regulating kinase 3 (Homo sapiens) (UniProt P27448); assay: Inhibition of MARK3 (unknown origin) assessed as remaining activity at 10 uM by high-throughput assay relative to control
[5] = target: Inhibitor of nuclear factor kappa-B kinase subunit alpha (Homo sapiens) (UniProt O15111); assay: Inhibition of IKK-alpha (unknown origin) assessed as remaining activity at 10 uM by high-throughput assay relative to control
[6] = target: Serine/threonine-protein kinase pim-3 (Homo sapiens) (UniProt Q86V86); assay: Inhibition of PIM3 (unknown origin) assessed as remaining activity at 10 uM by high-throughput assay relative to control
[7] = target: Testis-specific serine/threonine-protein kinase 1 (Homo sapiens) (UniProt Q9BXA7); assay: Inhibition of TSSK1B (unknown origin) assessed as remaining activity at 10 uM by high-throughput assay relative to control
Chain of Testis-specific serine/threonine-protein kinase 1 (Homo sapiens) (Q9BXA7 whole entry): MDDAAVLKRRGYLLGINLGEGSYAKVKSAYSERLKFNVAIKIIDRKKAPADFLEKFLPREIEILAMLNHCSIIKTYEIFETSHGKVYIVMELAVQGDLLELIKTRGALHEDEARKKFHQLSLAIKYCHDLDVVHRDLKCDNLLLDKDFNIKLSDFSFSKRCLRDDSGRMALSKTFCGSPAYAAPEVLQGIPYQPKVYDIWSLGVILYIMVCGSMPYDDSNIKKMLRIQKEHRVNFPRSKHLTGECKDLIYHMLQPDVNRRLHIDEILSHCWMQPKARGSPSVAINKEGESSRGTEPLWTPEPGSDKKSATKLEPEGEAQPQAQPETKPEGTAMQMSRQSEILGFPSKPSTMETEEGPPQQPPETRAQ

[8] = target: Glycogen synthase kinase-3 beta (Homo sapiens) (UniProt P49841); assay: Inhibition of GSK3B (unknown origin) assessed as remaining activity at 10 uM by high-throughput assay relative to control
[9] = target: Atypical kinase COQ8A, mitochondrial (Homo sapiens) (UniProt Q8NI60); assay: Inhibition of ADCK3 (unknown origin) assessed as remaining activity at 10 uM by high-throughput assay relative to control
[10] = target: Serine/threonine-protein kinase pim-1 (Homo sapiens) (UniProt P11309); assay: Inhibition of PIM1 (unknown origin) assessed as remaining activity at 10 uM by high-throughput assay relative to control
Chain of Serine/threonine-protein kinase pim-1 (Homo sapiens) (P11309 whole entry, looked up): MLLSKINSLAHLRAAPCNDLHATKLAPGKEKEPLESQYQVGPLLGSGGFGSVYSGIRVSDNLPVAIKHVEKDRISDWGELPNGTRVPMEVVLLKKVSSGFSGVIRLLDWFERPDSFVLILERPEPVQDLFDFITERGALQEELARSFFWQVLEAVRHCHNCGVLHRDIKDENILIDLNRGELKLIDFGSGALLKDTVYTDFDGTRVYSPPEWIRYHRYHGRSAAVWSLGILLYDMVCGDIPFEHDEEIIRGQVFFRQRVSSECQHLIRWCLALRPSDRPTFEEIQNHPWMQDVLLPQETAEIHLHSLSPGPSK

[11] = target: Fibroblast growth factor receptor 2 (Homo sapiens) (UniProt P21802); assay: Inhibition of FGFR2 (unknown origin) assessed as remaining activity at 10 uM by high-throughput assay relative to control
[12] = tested on: Tyrosine-protein kinase ABL1 (Homo sapiens), P00519 [T315I]; assay: Inhibition of ABL1 T315I mutant phosphorylation (unknown origin) assessed as remaining activity at 10 uM by high-throughput assay relative to control
[13] = target: Tyrosine-protein kinase ABL1 (Homo sapiens) (UniProt P00519); assay: Inhibition of ABL1 (unknown origin) assessed as remaining activity at 10 uM by high-throughput assay relative to control
[14] = target: Fibroblast growth factor receptor 3 (Homo sapiens) (UniProt P22607); assay: Inhibition of FGFR3 (unknown origin) assessed as remaining activity at 10 uM by high-throughput assay relative to control
[15] = target: Hepatocyte growth factor receptor (Homo sapiens) (UniProt P08581); assay: Inhibition of MET (unknown origin) assessed as remaining activity at 10 uM by high-throughput assay relative to control
[16] = tested on: Mast/stem cell growth factor receptor Kit (Homo sapiens), P10721 [V559D,T670I]; assay: Inhibition of KIT V559D/T670I double mutant (unknown origin) assessed as remaining activity at 10 uM by high-throughput assay relative to control
[17] = target: Serine/threonine-protein kinase B-raf (Homo sapiens) (UniProt P15056); assay: Inhibition of BRAF (unknown origin) assessed as remaining activity at 10 uM by high-throughput assay relative to control
Chain of Serine/threonine-protein kinase B-raf (Homo sapiens) (P15056 whole entry): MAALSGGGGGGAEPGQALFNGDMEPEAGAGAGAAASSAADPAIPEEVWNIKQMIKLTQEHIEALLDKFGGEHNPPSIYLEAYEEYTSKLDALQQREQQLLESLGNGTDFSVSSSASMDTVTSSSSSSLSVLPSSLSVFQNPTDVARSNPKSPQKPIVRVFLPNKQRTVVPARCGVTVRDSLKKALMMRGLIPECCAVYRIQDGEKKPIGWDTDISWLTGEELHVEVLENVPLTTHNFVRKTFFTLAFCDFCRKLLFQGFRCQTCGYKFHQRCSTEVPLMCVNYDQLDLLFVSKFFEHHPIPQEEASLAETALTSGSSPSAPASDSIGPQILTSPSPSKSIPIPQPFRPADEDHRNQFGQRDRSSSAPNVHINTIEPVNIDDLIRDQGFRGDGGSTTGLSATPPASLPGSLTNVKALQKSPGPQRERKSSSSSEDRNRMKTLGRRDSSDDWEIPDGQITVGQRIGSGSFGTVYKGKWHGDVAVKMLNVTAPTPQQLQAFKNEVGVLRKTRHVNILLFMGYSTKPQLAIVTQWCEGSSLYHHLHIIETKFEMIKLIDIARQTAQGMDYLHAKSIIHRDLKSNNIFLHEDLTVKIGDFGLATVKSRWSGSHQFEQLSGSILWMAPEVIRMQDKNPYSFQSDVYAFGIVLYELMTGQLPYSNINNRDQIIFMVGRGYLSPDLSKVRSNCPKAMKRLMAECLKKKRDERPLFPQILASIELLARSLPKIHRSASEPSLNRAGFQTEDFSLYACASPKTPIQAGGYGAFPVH

[18] = target: Mitogen-activated protein kinase 9 (Homo sapiens) (UniProt P45984); assay: Inhibition of JNK2 (unknown origin) assessed as remaining activity at 10 uM by high-throughput assay relative to control
[19] = target: High affinity nerve growth factor receptor (Homo sapiens, UniProt P04629); assay: Inhibition of TrkA (unknown origin) by radiometric analysis in presence of [gamma-33P]-ATP
[20] = target: Receptor-type tyrosine-protein kinase FLT3 (Homo sapiens) (UniProt P36888); assay: Inhibition of FLT3 (unknown origin) assessed as remaining activity at 10 uM by high-throughput assay relative to control
Chain of Receptor-type tyrosine-protein kinase FLT3 (Homo sapiens) (P36888 whole entry): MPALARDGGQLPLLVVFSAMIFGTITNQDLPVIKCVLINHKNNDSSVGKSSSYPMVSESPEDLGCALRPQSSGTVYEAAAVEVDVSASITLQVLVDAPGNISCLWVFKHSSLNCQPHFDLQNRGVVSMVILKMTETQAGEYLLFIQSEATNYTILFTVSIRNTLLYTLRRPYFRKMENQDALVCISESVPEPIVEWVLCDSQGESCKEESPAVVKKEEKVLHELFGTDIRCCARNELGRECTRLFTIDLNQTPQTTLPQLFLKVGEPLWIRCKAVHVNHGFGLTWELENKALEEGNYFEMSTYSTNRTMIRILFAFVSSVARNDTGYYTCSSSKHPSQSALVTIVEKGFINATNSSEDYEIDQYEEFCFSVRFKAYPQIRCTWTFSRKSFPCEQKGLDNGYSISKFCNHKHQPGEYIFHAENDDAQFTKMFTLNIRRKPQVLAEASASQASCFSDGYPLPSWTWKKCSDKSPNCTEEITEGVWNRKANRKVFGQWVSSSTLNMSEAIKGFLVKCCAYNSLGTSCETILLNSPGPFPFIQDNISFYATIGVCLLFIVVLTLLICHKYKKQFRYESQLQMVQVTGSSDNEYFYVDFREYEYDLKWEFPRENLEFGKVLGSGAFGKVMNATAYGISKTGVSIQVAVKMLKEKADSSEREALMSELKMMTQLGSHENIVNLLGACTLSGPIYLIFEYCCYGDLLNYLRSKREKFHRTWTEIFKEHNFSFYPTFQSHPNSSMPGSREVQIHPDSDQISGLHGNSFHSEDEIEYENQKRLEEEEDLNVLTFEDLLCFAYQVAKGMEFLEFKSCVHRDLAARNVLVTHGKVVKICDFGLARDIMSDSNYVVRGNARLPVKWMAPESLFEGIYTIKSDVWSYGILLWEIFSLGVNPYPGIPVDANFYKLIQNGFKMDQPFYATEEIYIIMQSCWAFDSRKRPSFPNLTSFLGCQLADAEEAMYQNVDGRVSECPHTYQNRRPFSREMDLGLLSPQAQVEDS

[21] = target: Serine/threonine-protein kinase pim-2 (Homo sapiens) (UniProt Q9P1W9); assay: Inhibition of PIM2 (unknown origin) assessed as remaining activity at 10 uM by high-throughput assay relative to control
[22] = target: Receptor tyrosine-protein kinase erbB-2 (Homo sapiens) (UniProt P04626); assay: Inhibition of ERBB2 (unknown origin) assessed as remaining activity at 10 uM by high-throughput assay relative to control
Chain of Receptor tyrosine-protein kinase erbB-2 (Homo sapiens) (P04626 whole entry): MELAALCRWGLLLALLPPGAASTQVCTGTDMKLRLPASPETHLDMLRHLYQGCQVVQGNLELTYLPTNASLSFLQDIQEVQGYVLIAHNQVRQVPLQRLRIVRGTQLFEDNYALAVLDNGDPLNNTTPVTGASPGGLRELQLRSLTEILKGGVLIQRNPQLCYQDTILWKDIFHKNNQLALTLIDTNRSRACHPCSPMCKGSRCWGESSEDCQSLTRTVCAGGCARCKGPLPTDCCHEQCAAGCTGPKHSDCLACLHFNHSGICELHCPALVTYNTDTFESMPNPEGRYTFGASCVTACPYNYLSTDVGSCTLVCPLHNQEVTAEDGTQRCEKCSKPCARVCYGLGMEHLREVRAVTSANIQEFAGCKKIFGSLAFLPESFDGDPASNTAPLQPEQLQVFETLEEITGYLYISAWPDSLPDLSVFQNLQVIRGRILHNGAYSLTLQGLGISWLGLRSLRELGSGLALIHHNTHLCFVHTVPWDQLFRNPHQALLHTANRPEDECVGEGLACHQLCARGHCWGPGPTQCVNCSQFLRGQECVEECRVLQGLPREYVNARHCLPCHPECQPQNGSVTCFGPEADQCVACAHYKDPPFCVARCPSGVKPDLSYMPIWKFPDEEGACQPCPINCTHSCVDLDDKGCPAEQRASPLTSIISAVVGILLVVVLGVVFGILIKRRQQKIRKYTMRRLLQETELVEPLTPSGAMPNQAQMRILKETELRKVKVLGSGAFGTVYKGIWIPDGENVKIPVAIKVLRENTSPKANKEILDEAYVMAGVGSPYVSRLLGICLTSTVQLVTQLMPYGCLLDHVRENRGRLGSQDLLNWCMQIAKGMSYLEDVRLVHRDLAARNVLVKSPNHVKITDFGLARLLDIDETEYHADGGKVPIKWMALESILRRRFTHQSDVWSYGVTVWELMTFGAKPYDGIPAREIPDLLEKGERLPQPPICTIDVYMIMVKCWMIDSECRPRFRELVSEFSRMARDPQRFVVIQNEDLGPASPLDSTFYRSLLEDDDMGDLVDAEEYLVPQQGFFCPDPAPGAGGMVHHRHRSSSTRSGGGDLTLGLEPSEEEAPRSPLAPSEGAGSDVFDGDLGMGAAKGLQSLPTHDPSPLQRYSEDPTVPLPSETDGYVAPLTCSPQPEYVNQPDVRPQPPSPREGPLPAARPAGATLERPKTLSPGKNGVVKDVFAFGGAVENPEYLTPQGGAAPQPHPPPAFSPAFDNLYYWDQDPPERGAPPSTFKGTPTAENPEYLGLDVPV

[23] = target: Mitogen-activated protein kinase 8 (Homo sapiens) (UniProt P45983); assay: Inhibition of JNK1 (unknown origin) assessed as remaining activity at 10 uM by high-throughput assay relative to control
[24] = target: Mitogen-activated protein kinase 10 (Homo sapiens) (UniProt P53779); assay: Inhibition of JNK3 (unknown origin) assessed as remaining activity at 10 uM by high-throughput assay relative to control
[25] = target: 3-phosphoinositide-dependent protein kinase 1 (Homo sapiens) (UniProt O15530); assay: Inhibition of PDPK1 (unknown origin) assessed as remaining activity at 10 uM by high-throughput assay relative to control
Chain of 3-phosphoinositide-dependent protein kinase 1 (Homo sapiens) (O15530 whole entry): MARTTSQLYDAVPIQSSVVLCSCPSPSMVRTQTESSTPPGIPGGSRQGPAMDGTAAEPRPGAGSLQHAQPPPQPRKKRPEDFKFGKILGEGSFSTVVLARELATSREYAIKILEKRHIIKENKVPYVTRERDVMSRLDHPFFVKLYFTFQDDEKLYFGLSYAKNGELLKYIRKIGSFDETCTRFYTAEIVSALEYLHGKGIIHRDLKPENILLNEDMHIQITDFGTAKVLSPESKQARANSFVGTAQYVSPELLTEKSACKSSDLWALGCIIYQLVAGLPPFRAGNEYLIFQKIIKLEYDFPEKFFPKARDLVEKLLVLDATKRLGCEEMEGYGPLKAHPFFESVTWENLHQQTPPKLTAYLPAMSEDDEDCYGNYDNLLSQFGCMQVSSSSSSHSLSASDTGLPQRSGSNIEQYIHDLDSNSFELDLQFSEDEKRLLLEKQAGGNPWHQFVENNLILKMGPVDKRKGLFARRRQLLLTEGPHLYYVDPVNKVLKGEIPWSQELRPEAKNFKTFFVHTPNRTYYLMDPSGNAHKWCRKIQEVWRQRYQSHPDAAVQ

[26] = target: Cyclin-dependent kinase 3 (Homo sapiens) (UniProt Q00526); assay: Inhibition of CDK3 (unknown origin) assessed as remaining activity at 10 uM by high-throughput assay relative to control
Chain of Cyclin-dependent kinase 3 (Homo sapiens) (Q00526 whole entry, looked up): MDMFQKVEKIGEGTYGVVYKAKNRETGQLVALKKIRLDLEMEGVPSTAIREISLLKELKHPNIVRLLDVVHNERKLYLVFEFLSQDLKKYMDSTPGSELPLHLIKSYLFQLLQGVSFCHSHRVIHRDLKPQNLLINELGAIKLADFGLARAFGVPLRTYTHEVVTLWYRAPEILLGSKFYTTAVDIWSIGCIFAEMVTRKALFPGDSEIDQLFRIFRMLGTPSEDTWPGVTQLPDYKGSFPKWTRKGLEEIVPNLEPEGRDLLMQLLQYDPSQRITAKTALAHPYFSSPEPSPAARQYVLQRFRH

[27] = target: cAMP-dependent protein kinase catalytic subunit alpha (Homo sapiens) (UniProt P17612); assay: Inhibition of PKAC-alpha (unknown origin) assessed as remaining activity at 10 uM by high-throughput assay relative to control
[28] = target: Serine/threonine-protein kinase PLK1 (Homo sapiens) (UniProt P53350); assay: Inhibition of PLK1 (unknown origin) assessed as remaining activity at 10 uM by high-throughput assay relative to control
[29] = target: Tyrosine-protein kinase ABL1 (Homo sapiens) (UniProt P00519); assay: Inhibition of ABL1 phosphorylation (unknown origin) assessed as remaining activity at 10 uM by high-throughput assay relative to control
[30] = target: Aurora kinase A (Homo sapiens) (UniProt O14965); assay: Inhibition of AURKA (unknown origin) assessed as remaining activity at 10 uM by high-throughput assay relative to control
[31] = target: Dual specificity mitogen-activated protein kinase kinase 1 (Homo sapiens) (UniProt Q02750); assay: Inhibition of MEK1 (unknown origin) assessed as remaining activity at 10 uM by high-throughput assay relative to control
Chain of Dual specificity mitogen-activated protein kinase kinase 1 (Homo sapiens) (Q02750 whole entry): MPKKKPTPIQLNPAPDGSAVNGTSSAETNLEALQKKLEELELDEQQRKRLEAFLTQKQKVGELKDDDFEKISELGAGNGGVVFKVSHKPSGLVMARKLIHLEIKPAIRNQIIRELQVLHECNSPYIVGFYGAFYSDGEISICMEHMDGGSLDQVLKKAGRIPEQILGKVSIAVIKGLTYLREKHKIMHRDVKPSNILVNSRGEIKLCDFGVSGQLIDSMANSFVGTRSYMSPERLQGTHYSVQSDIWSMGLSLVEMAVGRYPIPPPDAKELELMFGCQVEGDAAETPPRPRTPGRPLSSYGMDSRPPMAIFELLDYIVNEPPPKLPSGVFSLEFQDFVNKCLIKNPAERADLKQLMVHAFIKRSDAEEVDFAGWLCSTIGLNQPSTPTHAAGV

[32] = tested on: Mast/stem cell growth factor receptor Kit (Homo sapiens), P10721 [D816V]; assay: Inhibition of KIT D816V mutant (unknown origin) assessed as remaining activity at 10 uM by high-throughput assay relative to control

## O=C1c2ccccc2-c2c1oc1ccccc1c2=O
[1]
  Activity: 66%
[2]
  Activity: 76%
[3]
  Activity: 77%
[4]
  Activity: 90%
[5]
  Activity: 65%
[6]
  Activity: 94%
[7]
  Activity: 71%
[8]
  Activity: 77%
[9]
  Activity: 73%
[10]
  Activity: 93%
[11]
  Activity: 56%
[12]
  Activity: 61%
[13]
  Activity: 95%
[14]
  Activity: 54%
[15]
  Activity: 64%
[16]
  Activity: 65%
[17]
  Activity: 66%
[18]
  Activity: 49%
[19]
  IC50: 55.8 µM
[20]
  Activity: 51%
[21]
  Activity: 82%
[22]
  Activity: 92%
[23]
  Activity: 34%
[24]
  Activity: 33%
[25]
  Activity: 99%
[26]
  Activity: 91%
[27]
  Activity: 92%
[28]
  Activity: 38%
[29]
  Activity: 98%
[30]
  Activity: 82%
[31]
  Activity: 85%
[32]
  Activity: 58%
